How the values were obtained:
cyclin D1 [1] = assay: Western blotting of cyclin D1 expression in HEK293 cells over time; type: cell-based; settings: treated over time
Method: HEK293 cells were treated with Compound 4 or 10 over time, and the expression level of cyclin D1 was examined through Western blotting.

cyclin D1 [2] = assay: Western blotting of cyclin D1 expression in cultured mouse neural stem cells; type: cell-based; settings: relative to control
Method: Mouse neural stem cells were treated with Compound 4, 6, or 10, and the expression level of cyclin D1, which positively controls cell proliferation, was examined through Western blotting. FIGS. 4A and 4B show the results. In FIGS. 4A and 4B, “Control” indicates the results from adding no compounds, and “Solvent” indicates dimethyl sulfoxide (DMSO).

Mouse neural stem cells = assay: BrdU uptake in cultured mouse neural stem cells (Arrayscan); type: cell-based; settings: for incorporation of BrdU into neural stem cells (ratio of BrdU-positive cells relative to control): 1.25 μM, 2.5 μM, or 5 μM
Method: Mouse neural stem cells were treated with Compound 4 or 10, and then neural stem cell proliferating activity was examined using, as an index, uptake of 5-bromo-2′-deoxyuridine (BrdU), which is a nucleoside analog to be used as a proliferation index.
Specifically, isolated neural stem cells were cultured in the presence of BrdU and Compound 4 or 10 at a concentration of 1.25 μM, 2.5 μM, or 5 μM, so that proliferating cells were labeled. After the cells were fixed, BrdU was detected by an anti-BrdU antibody, and the ratio of proliferating cells that had incorporated the BrdU was quantitatively analyzed using Arrayscan (Thermo Scientific). […] In FIG. 3, “Control” indicates the results from adding no compounds, and “Solvent” indicates dimethyl sulfoxide (DMSO).

DYRK1A [3] = target: T1, DYRK1A (Homo sapiens, UniProt Q13627); assay: in-vitro kinase assay against DYRK1A; type: biochemical; settings: for IC50: DYRK peptide as substrate, 10 μM ATP
Method: The inhibitory activity of Compounds 4 and 10 against DYRK1A was examined through in-vitro kinase assay (in-vitro kinase analysis).
The inhibitory activity of Compounds 4 and 10 against DYRK1A was examined in the presence of DYRK1A protein using a DYRK peptide as a substrate under the condition of 10 μM ATP.

DYRK1A [4] = target: T1, DYRK1A; assay: Western blotting of tau protein phosphorylation (threonine 212) in cultured cells expressing tau protein and DYRK1A protein; type: cell-based; settings: 0.3 μM, 1 μM, 3 μM, or 10 μM; antibody to phosphorylated threonine 212 of tau
Method: Tau protein, which is a substrate of a target kinase, was overexpressed in cells in the presence of Compound 4 or 10 at a concentration of 0.3 μM, 1 μM, 3 μM, or 10 μM, and the inhibitory activity of Compounds 4 and 10 was examined using the phosphorylation of the tau protein as an index.
FIG. 2 is an example of the result of Western blotting analysis of cultured cells in which the expression of both tau protein and DYRK1A protein was induced in the presence of Compound 4 or 10 at a concentration of 0.3 μM, 1 μM, 3 μM, or 10 μM, using an antibody that specifically recognizes the phosphorylated threonine residue at 212-position of tau protein was used to analyze.

[5] = system: fibroblasts derived from human skin; assay: flow cytometry cell cycle analysis of fibroblasts derived from human skin; type: cell-based; settings: 48 hours treatment
Method: Next, fibroblasts derived from human skin were treated with a solvent or Compound 4 for 48 hours, and the cell cycle was analyzed through flow cytometry. […] It is considered that this is because Compound 4 stabilized cyclin D1 and thus stimulated the progression of the cell cycle from the G1 phase to the subsequent S phase and G2/M phase.

[6] = system: Down syndrome model mice (Ts1Cje); assay: neurogenesis in the dentate gyrus of the hippocampus of Down syndrome model mice; type: in vivo, mouse; settings: 8-week old Down syndrome model mice
Method: First, a solvent or Compound 4 was administered to 8-week old wild-type mice and 8-week old Down syndrome model mice, and the effect on neurogenesis in the dentate gyrus of the hippocampus was examined.

Down syndrome model mice = assay: learning and memory tests (Y maze, Barnes maze, fear conditioning) after prenatal administration; type: in vivo, mouse; settings: 10 mg/kg oral once a day to pregnant mice from tenth day of fetal life until birth; tested at 8 weeks
Method: Compound 4 (10 mg/kg) or a solvent was orally administered to pregnant mice carrying Down syndrome model mice once a day from the tenth day of fetal life until birth. After birth, at the age of 8 weeks, three types of tests (A. Y maze test for spontaneous alteration behavior, B. Barnes maze test for spatial memory, and C. fear conditioning test) were performed successively. FIGS. 8A to 8C show the results. In FIGS. 8A to 8C, “Solvent” indicates the results from adding no compound.

[7] = system: neural stem cells isolated Down syndrome model mice (Ts1Cje); assay: proliferation (BrdU-positive ratio) of neural stem cells from Down syndrome model mice; type: cell-based, mouse; settings: Ts1Cje versus wild-type
Method: Neural stem cells were prepared from wild-type mice and Down syndrome model mice (Ts1Cje: the same applies hereinafter), and the effect of Compound 4 on the proliferation of neural stem cells isolated Down syndrome model mice was examined. […] In FIG. 6, “Solvent” indicates the results from no adding compound.

[8] = system: zebrafish spinal cord injury; assay: zebrafish spinal cord injury model, migration distance by behavior analysis; type: in vivo; settings: in breeding water, sixth to eighth day after fertilization
Description: On the fifth day after fertilization, the zebrafish spinal cord was injured using an ophthalmic scalpel, and the zebrafish was bred in breeding water containing Compound 4 until the eighth day after fertilization.

[9] = system: Facial nerve palsy model mice; assay: facial nerve palsy model, paralysis scores; type: in vivo, ICR mouse; settings: 10 mg/kg every day from an hour before the operation
Method: A facial nerve trunk (3 mm) of a rodent (ICR mouse; 6 to 8 weeks old) was extracted and compressed using a Mosquito forceps with a width of 1 mm for 30 seconds. Facial nerve palsy model mice were thus produced. Compound 4 (10 mg/kg) was administered every day from an hour before the operation (day 0), and paralysis scores relating to nictitation (“no eye-opening” to “cured”), a nose (“extended” to “cured”), and whiskers (“no movement” to “cured”) were evaluated according to four levels. […] In FIG. 9A, “Solvent” indicates the results from adding no compound.

[10] = system: Down syndrome model mice (fetus); assay: thickness of the cerebral cortex of Down syndrome model fetuses after oral administration to pregnant mice; type: in vivo, mouse; settings: tenth to fifteenth day of fetal life
Method: Moreover, Compound 4 was orally administered to pregnant mice carrying Down syndrome model mice from the tenth day to fifteenth day of fetal life, and the thickness of the cerebral cortex was measured at the fifteenth day of fetal life. […] In FIGS. 7A and 7B, “Solvent” indicates the results from adding no compound.

[11] = system: neural stem cells present in the dentate gyrus of the hippocampus; assay: neurogenesis in the dentate gyrus of the hippocampus after 10-day administration; type: in vivo, rodent; settings: versus solvent administered group
Method: After 10-day long administration of Compound 4 to a rodent, BrdU was administered thereto, and the number of proliferating cells was quantitatively evaluated. […] In FIGS. 5B and 5C, “Solvent” indicates the results from adding no compound. FIG. 5A is a representative images of thin sections of the dentate gyrus of the hippocampus, and the image of Dapi staining (nucleus staining), the image of doublecortin (DCX) staining, and the image of BrdU staining are shown in the order from top to bottom. FIG. 5B is an example of a graph showing the number of BrdU-positive cells in the dentate gyrus of the hippocampus. FIG. 5C is an example of a graph showing the number of immature neurons in the dentate gyrus of the hippocampus as a relative value determined based on the result from the solvent sample taken as 1.

SMILES	melting point	IC50 (DYRK1A [3]) [nM]	inhibitory effect against the phosphorylation of tau protein (DYRK1A [4])	protein level of cyclin D1 (cyclin D1 [1])	expression level of cyclin D1 (cyclin D1 [2])	incorporation of BrdU into neural stem cells (ratio of BrdU-positive cells relative to control) (Mouse neural stem cells)	other results
c1cncc(Nc2cccc3ncccc23)c1 [Compound 8, 5-(3-Pyridylamino)quinoline]	180 °C (dec.)	–	–	–	–	–	–
c1ccc2c(-c3ccc4[nH]ncc4c3)cncc2c1 [Compound 6]	–	–	showed the same tendency as Compounds 4 and 10	–	significantly high	–	proliferation of cultured neural stem cells (Mouse neural stem cells; 2.5 μM and 5 μM): promoted the proliferation of cultured neural stem cells; inhibitory activity against DYRK1A (DYRK1A [3]; same experiment as Compounds 4 and 10): lower than that of Compounds 4 and 10
c1cncc(-c2ccc3[nH]ncc3c2)c1 [Compound 4]	–	55.6	exhibited a high inhibitory effect	increased (i.e. the cyclin D1 was stabilized) in a treatment time dependent manner	significantly high	increased the amount of incorporation of BrdU	ratio of cell in the G2/M phase of the cell cycle [5]: increased; ratio of cells in the G1 phase of the cell cycle [5]: decreased; number of proliferating cells in dentate gyrus of the hippocampus [6]: compensated for the reduced neurogenesis; cognitive function (Y maze, Barnes maze, fear conditioning tests) (Down syndrome model mice): improved the cognition function; ratio of BrdU-positive cells in neural stem cells from Down syndrome model mice [7]: compensated for the reduced proliferation; migration distance after spinal cord injury [8]: migration distance was recovered; paralysis scores (nictitation, nose, whiskers) [9]: tended to promote recovery; thickness of cortical layers [10]: compensated for the cerebral cortex with a reduced thickness; number of immature neurons in the dentate gyrus of the hippocampus [11]: significantly larger; number of proliferating cells (BrdU-positive) in the dentate gyrus of the hippocampus [11]: significantly larger

Second part, led by results:

melting point	IC50 (DYRK1A [3]) [nM]	inhibitory effect against the phosphorylation of tau protein (DYRK1A [4])	SMILES	protein level of cyclin D1 (cyclin D1 [1])	expression level of cyclin D1 (cyclin D1 [2])	incorporation of BrdU into neural stem cells (ratio of BrdU-positive cells relative to control) (Mouse neural stem cells)	other results
255 °C (dec.)	–	–	c1cc(-c2ccc3[nH]ncc3c2)c2cccnc2c1 [Compound 1, 5-(5-Quinolyl)indazole]	–	–	–	–
–	59.7	exhibited a high inhibitory effect	c1cnc2ccc(-c3ccncc3)cc2c1 [Compound 10]	increased (i.e. the cyclin D1 was stabilized) in a treatment time dependent manner	significantly high	increased the amount of incorporation of BrdU	–
